Measured values as given in patent US12570675B2, “Boronic acid compounds” (LG CHEM, LTD., priority 2020, dated 2026).

molecular target: Proteasome chymotrypsin-like activity (S26 protein from RPMI8226 cells) (Homo sapiens, UniProt P28074); format: biochemical; conditions: S26 protein from RPMI8226 cell extract 2 ug/well, substrate 20 uM, 37° C., 90 minutes; read-out: Proteasome chymotrypsin-like activity inhibition IC50
Protocol: The abilities to inhibit the proteasome activity of the compounds described in the Examples of the present invention and boronic acid drugs were evaluated as follows.
RPMI8226 cells, which is a multiple myeloma cell line, were cultured and then separated by a centrifuge, and washed twice with phosphate buffered saline (PBS). 20 mM of a tris-HCl (pH 8.0) buffer solution was added to the washed cells, and the cells were disrupted by a homogenizer and centrifuged to obtain S26 protein from the supernatant. Suc-Leu-Leu-Val-Tyr-AMC, for a fluorogenic substrate for the chymotrypsin-like activity of the proteasome, and Z-Leu-Leu-Glu-AMC, for a fluorogenic substrate for the caspase-like activity, were purchased from Calbiochem, EMD Millipore and used. Into each well of a 96-well plate (opaque, black round bottom), 20 ul of the S26 protein (final RPMI8226 cell extract concentration: 2 ug/well), 10 ul of S26 proteasome inhibitor serially diluted from 10 uM (final DMSO concentration: 0.5%), and 20 ul of the fluorogenic substrate for the proteasome chymotrypsin-like or caspase-like activity (final concentration: 20 uM) were added and mixed and allowed to react in a 37° C. incubator for 90 minutes. The fluorescence of the fluorogenic substrate was measured by FlexStation II Fluorometer (Molecular Devices). The fluorescence inhibited by the compound diluted at each concentration was measured as the relative percentage value for the amount obtained from the treatment only with the S26 protein and the fluorogenic substrate. IC50 (inhibitory concentration 50) was expressed in terms of a concentration that inhibits 50% of the maximum fluorescence induced by the fluorogenic substrate.

Chain of Proteasome chymotrypsin-like activity (S26 protein from RPMI8226 cells) (P28074 60-263 limits assumed): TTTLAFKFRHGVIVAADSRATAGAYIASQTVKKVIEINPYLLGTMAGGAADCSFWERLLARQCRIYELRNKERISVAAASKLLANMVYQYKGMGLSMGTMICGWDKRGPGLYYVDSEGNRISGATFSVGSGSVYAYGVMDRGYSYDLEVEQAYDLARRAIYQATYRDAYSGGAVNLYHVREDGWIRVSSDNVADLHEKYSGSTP

Compound | IC50
CC(C)C[C@H](NC(=O)C1(C(C)C)CC(CNC(=O)c2cc(Cl)ccc2Cl)=NO1)B(O)O (stereo partly drawn) [Example 89, ((1R)-1-(3-((2,5-dichlorobenzamido)methyl)-5-isopropyl-4,5-dihydroisoxazol-5-carboxamido)-3-methylbutyl)boronic acid] | < 100 nM
CC(C)C[C@H](NC(=O)C1(CC(C)C)CC(CNC(=O)c2cc(Cl)ccc2Cl)=NO1)B(O)O (stereo partly drawn) [Example 90, ((1R)-1-(3-((2,5-dichlorobenzamido)methyl)-5-isobutyl-4,5-dihydroisoxazol-5-carboxamido)-3-methylbutyl)boronic acid] | < 25 nM
CC(C)C[C@H](NC(=O)C1(CC(C)C)CC(CNC(=O)c2nccc3ccccc23)=NO1)B(O)O (stereo partly drawn) [Example 91, ((1R)-1-(5-isobutyl-3-((isoquinolin-1-carboxamido)methyl)-4,5-dihydroisoxazol-5-carboxamido)-3-methylbutyl)boronic acid] | < 25 nM
CC(C)C[C@H](NC(=O)C1(Cc2ccccc2)CC(CNC(=O)c2cc3ccccc3s2)=NO1)B(O)O (stereo partly drawn) [Example 93, ((1R)-1-(3-((benzo[b]thiophen-2-carboxamido)methyl)-5-benzyl-4,5-dihydroisoxazol-5-carboxamido)-3-methylbutyl)boronic acid] | < 10 nM
CC(C)C[C@H](NC(=O)C1(Cc2ccccc2)CC(CNC(=O)c2ccc(-c3ccccc3)cc2)=NO1)B(O)O (stereo partly drawn) [Example 94, ((1R)-1-(3-([1,1′-biphenyl]-4-carboxamidomethyl)-5-benzyl-4,5-dihydroisoxazol-5-carboxamido)-3-methylbutyl)boronic acid] | < 10 nM
CC(C)C[C@H](NC(=O)C1(Cc2ccccc2)CC(CNC(=O)c2cccc(-c3ccccc3)c2)=NO1)B(O)O (stereo partly drawn) [Example 95, ((1R)-1-(3-([1,1′-biphenyl]-3-carboxamidomethyl)-5-benzyl-4,5-dihydroisoxazol-5-carboxamido)-3-methylbutyl)boronic acid] | < 10 nM
CC(C)C[C@H](NC(=O)C1(Cc2ccccc2)CC(CNC(=O)c2cccc(-c3ccccc3)n2)=NO1)B(O)O (stereo partly drawn) [Example 96, ((1R)-1-(5-benzyl-3-((6-phenylpicolinamido)methyl)-4,5-dihydroisoxazol-5-carboxamido)-3-methylbutyl)boronic acid] | < 10 nM
CC(C)C[C@H](NC(=O)C1(Cc2ccccc2)CC(CNC(=O)c2ccccc2-c2ccccc2)=NO1)B(O)O (stereo partly drawn) [Example 97, ((1R)-1-(3-([1,1′-biphenyl]-2-carboxamidomethyl)-5-benzyl-4,5-dihydroisoxazol-5-carboxamido)-3-methylbutyl)boronic acid] | < 10 nM
CC(C)C[C@H](NC(=O)C1(Cc2ccccc2)CC(CNC(=O)c2cccc(-c3ccccn3)c2)=NO1)B(O)O (stereo partly drawn) [Example 98, ((1R)-1-(5-benzyl-3-((3-(pyridin-2-yl)benzamido)methyl)-4,5-dihydroisoxazol-5-carboxamido)-3-methylbutyl)boronic acid] | < 10 nM
CC(C)C[C@H](NC(=O)C1(Cc2ccccc2)CC(CN(C)C(=O)c2nccc3ccccc23)=NO1)B(O)O (stereo partly drawn) [Example 99, ((1R)-1-(5-benzyl-3-((N-methylisoquinolin-1-carboxamido)methyl)-4,5-dihydroisoxazol-5-carboxamido)-3-methylbutyl)boronic acid] | < 25 nM
CC(C)C[C@H](NC(=O)C1(Cc2ccc(Cl)cc2)CC(CNC(=O)c2nccc3ccccc23)=NO1)B(O)O (stereo partly drawn) [Example 101, ((1R)-1-(5-(4-chlorobenzyl)-3-((isoquinolin-1-carboxamido)methyl)-4,5-dihydroisoxazol-5-carboxamido)-3-methylbutyl)boronic acid] | < 10 nM
CC(C)C[C@H](NC(=O)C1(Cc2ccccc2Cl)CC(CNC(=O)c2nccc3ccccc23)=NO1)B(O)O (stereo partly drawn) [Example 102, ((1R)-1-(5-(2-chlorobenzyl)-3-((isoquinolin-1-carboxamido)methyl)-4,5-dihydroisoxazol-5-carboxamido)-3-methylbutyl)boronic acid] | < 10 nM
COc1ccccc1C(=O)NCC1=NOC(C(=O)N[C@@H](CC(C)C)B(O)O)C1 (stereo partly drawn) [Example 103, ((1R)-1-(3-((2-methoxybenzamido)methyl)-4,5-dihydroisoxazol-5-carboxamido)-3-methylbutyl)boronic acid] | < 50 nM
CC(C)C[C@H](NC(=O)C1CC([C@H](CC(C)C)NC(=O)c2ccccc2)=NO1)B(O)O (stereo partly drawn) [Example 104, ((1R)-1-(3-((S)-1-benzamido-3-methylbutyl)-4,5-dihydroisoxazol-5-carboxamido)-3-methylbutyl)boronic acid] | < 100 nM
CC(C)C[C@H](NC(=O)C1CC([C@H](CC(C)C)NC(=O)Cc2ccccc2)=NO1)B(O)O (stereo partly drawn) [Example 105, ((1R)-3-methyl-1-(3-((S)-3-methyl-1-(2-phenylacetamido)butyl)-4,5-dihydroisoxazol-5-carboxamido)butyl)boronic acid] | < 100 nM
CC(C)C[C@H](NC(=O)C1(Cc2ccccc2)CC(CNC(=O)c2cnccn2)=NO1)B(O)O (stereo partly drawn) [Example 106, ((1R)-1-(5-benzyl-3-((pyrazin-2-carboxamido)methyl)-4,5-dihydroisoxazol-5-carboxamido)-3-methylbutyl)boronic acid] | < 10 nM
CC(C)C[C@H](NC(=O)C1(Cc2ccccc2)CC(CNC(=O)C2CCCc3ccccc32)=NO1)B(O)O (stereo partly drawn) [Example 108, ((1R)-1-(5-benzyl-3-((1,2,3,4-tetrahydronaphthalen-1-carboxamido)methyl)-4,5-dihydroisoxazol-5-carboxamido)-3-methylbutyl)boronic acid] | < 10 nM
CC(C)C[C@H](NC(=O)C1(Cc2ccccc2)CC(CNC(=O)Cc2ccccc2)=NO1)B(O)O (stereo partly drawn) [Example 109, ((1R)-1-(5-benzyl-3-((2-phenylacetamido)methyl)-4,5-dihydroisoxazol-5-carboxamido)-3-methylbutyl)boronic acid] | < 10 nM
CC(C)C[C@H](NC(=O)C1(Cc2ccccc2)CC(CNC(=O)CCc2ccccc2)=NO1)B(O)O (stereo partly drawn) [Example 110, ((1R)-1-(5-benzyl-3-((3-phenylpropanamido)methyl)-4,5-dihydroisoxazol-5-carboxamido)-3-methylbutyl)boronic acid] | < 25 nM
Cc1ccc(F)cc1C(=O)NCC1=NOC(Cc2ccccc2)(C(=O)N[C@@H](CC(C)C)B(O)O)C1 (stereo partly drawn) [Example 111, ((1R)-1-(5-benzyl-3-((5-fluoro-2-methylbenzamido)methyl)-4,5-dihydroisoxazol-5-carboxamido)-3-methylbutyl)boronic acid] | < 10 nM
CC(C)C[C@H](NC(=O)C1(C(F)c2ccccc2)CC(CNC(=O)c2nccc3ccccc23)=NO1)B(O)O (stereo partly drawn) [Example 114, ((1R)-1-(5-(fluoro(phenyl)methyl)-3-((isoquinolin-1-carboxamido)methyl)-4,5-dihydroisoxazol-5-carboxamido)-3-methylbutyl)boronic acid] | < 10 nM
CC(C)C[C@H](NC(=O)C1(Cc2ccccc2)CC(CNC(=O)C2(c3ccccc3)CC2)=NO1)B(O)O (stereo partly drawn) [Example 118, ((1R)-1-(5-benzyl-3-((1-phenylcyclopropan-1-carboxamido)methyl)-4,5-dihydroisoxazol-5-carboxamido)-3-methylbutyl)boronic acid] | < 25 nM
